Values quoted from earlier work in patent US4530920A, “Nonapeptide and decapeptide analogs of LHRH, useful as LHRH agonist” (Syntex (U.S.A.) Inc., priority 1983, dated 1985).

System: LHRH activity
Conditions: for activity relative to LH-RH: 6-position Gly replaced by a D-amino acid, literature; for potency (times LHRH): relative to LHRH, from Rivier et al. 1975 and Vale et al. 1979

[D Ala^6 ]-LHRH
activity relative to LH-RH: increased activity relative to LH-RH

[D-Arg^6 ]LHRH
potency (times LHRH): 3.9 times LHRH

[D-Arg^6, Pro^9 -NHEt]LHRH
potency (times LHRH): 16.7 times LHRH

[D-LYS^6]LHRH
potency (times LHRH): 3.8 times LHRH

[D-Leu^6 ]LHRH
activity relative to LH-RH: increased activity relative to LH-RH

[D-Phe^6 ]LHRH
activity relative to LH-RH: increased activity relative to LH-RH

[D-Trp^6 ]LHRH
activity relative to LH-RH: increased activity relative to LH-RH
potency (times LHRH): 36 times LHRH

[D-Trp^6, Pro^9 -NHEt]LHRH
potency (times LHRH): 144 times LHRH
